Key:
wheat [1] = test: Test C postemergence; format: in vivo, Triticum aestivum; conditions: for Wheat plant response rating / Plant response rating, Wheat: postemergence; for Wheat plant response rating: scale 0 to 100
How it was run: (§1)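 Scores of 0 (no effect) to 100 (complete control) were assigned by eye after 13–15 days, comparing treated pots with controls. Soil-applied (preemergence) treatments went onto seeds in loam and sand; foliar (postemergence) treatments onto 1- to 4-leaf plants in peat medium.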

corn = test: Test C preemergence; format: in vivo, Zea mays; conditions: preemergence; for Plant response rating, Corn: 125 g ai/ha, scale 0 to 100, 0 = no effect, 100 = complete control
How it was run: as §1

lambsquarters = test: Test C postemergence; format: in vivo, Chenopodium album; conditions: for Plant response rating (scale of 0 to 100 where 0 is no effect and 100 is complete control), Lambsquarters: Postemergence, 31 g ai/ha, visually evaluated after 13 to 15 days; for Lambsquarters plant response rating / Plant response rating, Lambsquarters: postemergence; for Lambsquarters plant response rating: 62 g ai/ha, scale 0 to 100
How it was run: as §1

galium = test: Test C preemergence; format: in vivo, Galium aparine; conditions: preemergence; for Plant response rating, Galium: 125 g ai/ha, scale 0 to 100, 0 = no effect, 100 = complete control
How it was run: as §1

soybean = test: Test C preemergence; format: in vivo, Glycine max; conditions: preemergence; for Plant response rating, Soybean: 125 g ai/ha, scale 0 to 100, 0 = no effect, 100 = complete control
How it was run: as §1

wheat [2] = test: Test C preemergence; format: in vivo, Triticum aestivum; conditions: preemergence; for Plant response rating, Wheat: 125 g ai/ha, scale 0 to 100, 0 = no effect, 100 = complete control
How it was run: as §1

ragweed = test: Test C preemergence; format: in vivo, Ambrosia elation; conditions: preemergence; for Plant response rating, Ragweed: 125 g ai/ha, scale 0 to 100, 0 = no effect, 100 = complete control
How it was run: as §1

johnsongrass = test: Test C postemergence; format: in vivo, Sorghum halepense; conditions: for Plant response rating (scale of 0 to 100 where 0 is no effect and 100 is complete control), Johnsongrass: Postemergence, 31 g ai/ha, visually evaluated after 13 to 15 days; for Johnsongrass plant response rating / Plant response rating, Johnsongrass: postemergence; for Johnsongrass plant response rating: 62 g ai/ha, scale 0 to 100
How it was run: as §1

blackgrass = test: Test C preemergence; format: in vivo, Alopecurus myosuroides; conditions: preemergence; for Plant response rating, Blackgrass: 125 g ai/ha, scale 0 to 100, 0 = no effect, 100 = complete control
How it was run: as §1

oilseed rape = test: Test C preemergence; format: in vivo, Brassica napus; conditions: preemergence; for Plant response rating, Oilseed Rape: 125 g ai/ha, scale 0 to 100, 0 = no effect, 100 = complete control
How it was run: as §1

chickweed = test: Test C postemergence; format: in vivo, Stellaria media; conditions: for Plant response rating (scale of 0 to 100 where 0 is no effect and 100 is complete control), Chickweed: Postemergence, 31 g ai/ha, visually evaluated after 13 to 15 days; for Chickweed plant response rating / Plant response rating, Chickweed: postemergence; for Chickweed plant response rating: 62 g ai/ha, scale 0 to 100
How it was run: as §1

foxtail, giant = test: Test C postemergence; format: in vivo, Setaria faberii; conditions: for Plant response rating (scale of 0 to 100 where 0 is no effect and 100 is complete control), Foxtail, Giant: Postemergence, 31 g ai/ha, visually evaluated after 13 to 15 days; for Foxtail, Giant plant response rating / Plant response rating, Foxtail, Giant: postemergence; for Foxtail, Giant plant response rating: 62 g ai/ha, scale 0 to 100
How it was run: as §1

waterhemp = test: Test C preemergence; format: in vivo, Amaranthus rudis; conditions: preemergence; for Plant response rating, Waterhemp: 125 g ai/ha, scale 0 to 100, 0 = no effect, 100 = complete control
How it was run: as §1

pigweed = test: Test C preemergence; format: in vivo, Amaranthus retroflexus; conditions: preemergence; for Plant response rating, Pigweed: 125 g ai/ha, scale 0 to 100, 0 = no effect, 100 = complete control
How it was run: as §1

[3] = 250 g ai/ha, scale 0 to 100 (0 no effect, 100 complete control)
[4] = 125 g ai/ha, scale 0 to 100, 0 no effect, 100 complete control
[5] = 31 g ai/ha, visual rating, scale 0 to 100 (0 no effect, 100 complete control), 13 to 15 days
[6] = 62 g ai/ha, scale 0 to 100 (0 no effect, 100 complete control), 13 to 15 days
[7] = 250 g ai/ha, scale 0 to 100, 0 is no effect, 100 is complete control

Question: What does the source list for `CCCNC(=O)c1cc(OCC)n(Cc2ccnc(OC(F)F)c2)n1` [Compound 136]?
Answer: Plant response rating (scale of 0 to 100 where 0 is no effect and 100 is complete control), Wheat (wheat [1]; Postemergence, 31 g ai/ha, visually evaluated after 13 to 15 days): 5; Wheat plant response rating (wheat [1]; 62 g ai/ha): 5; Plant response rating, Wheat (wheat [1]; [3]): 15; Plant response rating, Wheat (wheat [1]; [4]): 10; Corn plant response rating (corn; [5]): 35; Corn plant response rating (corn; [6]): 70; Plant response rating, Corn (corn; 13 to 15 days): 60; Corn plant response rating (corn; [7]): 85; Plant response rating (scale of 0 to 100 where 0 is no effect and 100 is complete control), Lambsquarters (lambsquarters): 80; Lambsquarters plant response rating (lambsquarters): 85; Plant response rating, Lambsquarters (lambsquarters; [3]): 95; Plant response rating, Lambsquarters (lambsquarters; [4]): 98; Galium plant response rating (galium; [5]): 85; Galium plant response rating (galium; [6]): 100; Plant response rating, Galium (galium; 13 to 15 days): 100; Galium plant response rating (galium; [7]): 100; Soybean plant response rating (soybean; [5]): 45; Soybean plant response rating (soybean; [6]): 75; Plant response rating, Soybean (soybean; 13 to 15 days): 95; Soybean plant response rating (soybean; [7]): 100; Wheat plant response rating (wheat [2]; [5]): 10; Wheat plant response rating (wheat [2]; [6]): 65; Plant response rating, Wheat (wheat [2]; 13 to 15 days): 95; Wheat plant response rating (wheat [2]; [7]): 95; Ragweed plant response rating (ragweed; [5]): 45; Ragweed plant response rating (ragweed; [6]): 75; Plant response rating, Ragweed (ragweed; 13 to 15 days): 75; Ragweed plant response rating (ragweed; [7]): 98; Plant response rating (scale of 0 to 100 where 0 is no effect and 100 is complete control), Johnsongrass (johnsongrass): 5; Johnsongrass plant response rating (johnsongrass): 5; Plant response rating, Johnsongrass (johnsongrass; [3]): 10; Plant response rating, Johnsongrass (johnsongrass; [4]): 5; Blackgrass plant response rating (blackgrass; [5]): 85; Blackgrass plant response rating (blackgrass; [6]): 90; Plant response rating, Blackgrass (blackgrass; 13 to 15 days): 90; Blackgrass plant response rating (blackgrass; [7]): 90; Oilseed Rape plant response rating (oilseed rape; [5]): 100; Oilseed Rape plant response rating (oilseed rape; [6]): 100; Plant response rating, Oilseed Rape (oilseed rape; 13 to 15 days): 100; Oilseed Rape plant response rating (oilseed rape; [7]): 100; Plant response rating (scale of 0 to 100 where 0 is no effect and 100 is complete control), Chickweed (chickweed): 100; Chickweed plant response rating (chickweed): 100; Plant response rating, Chickweed (chickweed; [3]): 100; Plant response rating, Chickweed (chickweed; [4]): 100; Plant response rating (scale of 0 to 100 where 0 is no effect and 100 is complete control), Foxtail, Giant (foxtail, giant): 30; Foxtail, Giant plant response rating (foxtail, giant): 30; Plant response rating, Foxtail, Giant (foxtail, giant; [3]): 70; Plant response rating, Foxtail, Giant (foxtail, giant; [4]): 40; Waterhemp plant response rating (waterhemp; [5]): 85; Waterhemp plant response rating (waterhemp; [6]): 100; Plant response rating, Waterhemp (waterhemp; 13 to 15 days): 100; Waterhemp plant response rating (waterhemp; [7]): 100; Pigweed plant response rating (pigweed; [5]): 70; Pigweed plant response rating (pigweed; [6]): 70; Plant response rating, Pigweed (pigweed; 13 to 15 days): 60; Pigweed plant response rating (pigweed; [7]): 100

Question: Which results are given for `CCCc1cc(C(=O)NC2CC2)nn1Cc1ccnc(OC(F)F)c1` [Compound 205]?
Answer: Plant response rating, Wheat (wheat [1]; [3]): 5; Wheat plant response rating (wheat [1]): 5; Corn plant response rating (corn; [5]): 70; Corn plant response rating (corn; [6]): 70; Plant response rating, Corn (corn; 13 to 15 days): 80; Corn plant response rating (corn; [7]): 98; Plant response rating (scale of 0 to 100 where 0 is no effect and 100 is complete control), Lambsquarters (lambsquarters): 85; Lambsquarters plant response rating (lambsquarters): 85; Plant response rating, Lambsquarters (lambsquarters; [3]): 85; Plant response rating, Lambsquarters (lambsquarters; [4]): 90; Galium plant response rating (galium; [5]): 100; Galium plant response rating (galium; [6]): 90; Plant response rating, Galium (galium; 13 to 15 days): 95; Galium plant response rating (galium; [7]): 100; Soybean plant response rating (soybean; [5]): 80; Soybean plant response rating (soybean; [6]): 85; Plant response rating, Soybean (soybean; 13 to 15 days): 100; Soybean plant response rating (soybean; [7]): 100; Wheat plant response rating (wheat [2]; [5]): 5; Wheat plant response rating (wheat [2]; [6]): 15; Plant response rating, Wheat (wheat [2]; 13 to 15 days): 85; Wheat plant response rating (wheat [2]; [7]): 95; Ragweed plant response rating (ragweed; [5]): 80; Ragweed plant response rating (ragweed; [6]): 100; Plant response rating, Ragweed (ragweed; 13 to 15 days): 98; Ragweed plant response rating (ragweed; [7]): 100; Plant response rating (scale of 0 to 100 where 0 is no effect and 100 is complete control), Johnsongrass (johnsongrass): 5; Johnsongrass plant response rating (johnsongrass): 10; Plant response rating, Johnsongrass (johnsongrass; [3]): 45; Plant response rating, Johnsongrass (johnsongrass; [4]): 20; Blackgrass plant response rating (blackgrass; [5]): 80; Blackgrass plant response rating (blackgrass; [6]): 95; Plant response rating, Blackgrass (blackgrass; 13 to 15 days): 95; Blackgrass plant response rating (blackgrass; [7]): 100; Oilseed Rape plant response rating (oilseed rape; [5]): 100; Oilseed Rape plant response rating (oilseed rape; [6]): 100; Plant response rating, Oilseed Rape (oilseed rape; 13 to 15 days): 100; Oilseed Rape plant response rating (oilseed rape; [7]): 100; Plant response rating (scale of 0 to 100 where 0 is no effect and 100 is complete control), Chickweed (chickweed): 65; Chickweed plant response rating (chickweed): 90; Plant response rating, Chickweed (chickweed; [3]): 100; Plant response rating, Chickweed (chickweed; [4]): 98; Plant response rating (scale of 0 to 100 where 0 is no effect and 100 is complete control), Foxtail, Giant (foxtail, giant): 20; Foxtail, Giant plant response rating (foxtail, giant): 35; Plant response rating, Foxtail, Giant (foxtail, giant; [3]): 65; Plant response rating, Foxtail, Giant (foxtail, giant; [4]): 70; Waterhemp plant response rating (waterhemp; [5]): 100; Waterhemp plant response rating (waterhemp; [6]): 100; Plant response rating, Waterhemp (waterhemp; 13 to 15 days): 100; Waterhemp plant response rating (waterhemp; [7]): 100; Pigweed plant response rating (pigweed; [5]): 95; Pigweed plant response rating (pigweed; [6]): 100; Plant response rating, Pigweed (pigweed; 13 to 15 days): 100; Pigweed plant response rating (pigweed; [7]): 100

Source: US20150105252A1, “SUBSTITUTED PYRAZOLES AS HERBICIDES” (E I DU PONT DE NEMOURS AND COMPANY, priority 2013, published 2015)
